This is an account of results in patent US11702429B2, “mTORC modulators and uses thereof” (Aeovian Pharmaceuticals, Inc., priority 2019, dated 2023).

Each structure is given as a SMILES string. Where two headings read alike, the source gives them in different places.

One test concerns the target T1, mTORC1 (Homo sapiens, UniProt P42345+P62942).
T1 construct: endogenous in cells; host or cells: PC3 cells (human prostate adenocarcinoma)
Briefly: Inhibition assay for mTORC1: phosphorylation of pS6K at Thr389, AlphaLISA in PC3 cells. Conditions: for IC50: read-out: pIC50 mTORC1 (converted). The test is classed as cell-based. (In general: In Alpha technology, singlet oxygen from a donor bead excites a nearby acceptor bead.)

The next test addresses T2, mTORC2 (Homo sapiens, UniProt P42345+P62942).
T2 construct: endogenous in cells; host or cells: PC3 cells (human prostate adenocarcinoma)
Briefly: Inhibition assay for mTORC2: phosphorylation of pAkt at Ser473, AlphaLISA in PC3 cells. The test is classed as cell-based. Conditions: for IC50: read-out: pIC50 mTORC2 (converted).

The mark [1] stands for this setting: PC3 cells, treated 24 hours, pS6K Thr389, AlphaLISA, C16 diastereomer mixtures not separated.
The mark [2] stands for this setting: PC3 cells, treated 24 hours, pAkt Ser473, AlphaLISA, C16 diastereomer mixtures not separated.

T2 sequence (P62942 2-108 limits assumed, other chains not shown): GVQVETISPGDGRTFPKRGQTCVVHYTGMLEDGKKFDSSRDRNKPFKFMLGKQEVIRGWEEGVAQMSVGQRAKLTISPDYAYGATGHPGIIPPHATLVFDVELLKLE

Turning to `COC1C[C@@H]2CC[C@@H](C)[C@@](O)(O2)C(=O)C(=O)N2CCCCC2C(=O)O[C@H]([C@H](C)C[C@@H]2CC[C@@H](OC(=O)N(C)CCCO)[C@H](OC)C2)CC(=O)[C@H](C)/C=C(\C)[C@@H](O)[C@@H](OC)C(=O)[C@H](C)C[C@H](C)/C=C/C=C/C=C/1C` (stereo partly drawn) [Compound 338], the IC50 at mTORC1 was less than 0.316 nM; on mTORC2 it was less than 1000 nM.
For `COCO[C@@H]1CC[C@@H](C[C@@H](C)[C@@H]2CC(=O)[C@H](C)/C=C(\C)[C@@H](O)[C@@H](OC)C(=O)[C@H](C)C[C@H](C)/C=C/C=C/C=C(\C)C(OC)C[C@@H]3CC[C@@H](C)[C@@](O)(O3)C(=O)C(=O)N3CCCCC3C(=O)O2)C[C@H]1OC` (stereo partly drawn) [Compound 301] the same measures were less than 0.316 nM and less than 1000 nM.
On the same counts, the results for `COC1C[C@@H]2CC[C@@H](C)[C@@](O)(O2)C(=O)C(=O)N2CCCCC2C(=O)O[C@H]([C@H](C)C[C@@H]2CC[C@@H](OC(=O)N(C)CCCN(C)C)[C@H](OC)C2)CC(=O)[C@H](C)/C=C(\C)[C@@H](O)[C@@H](OC)C(=O)[C@H](C)C[C@H](C)/C=C/C=C/C=C/1C` (stereo partly drawn) [Compound 321] are less than 0.316 nM and less than 1000 nM.
For `CO[C@@H]1C[C@H](C[C@@H](C)[C@@H]2CC(=O)[C@H](C)/C=C(\C)[C@@H](O)[C@@H](OC)C(=O)[C@H](C)C[C@H](C)/C=C/C=C/C=C(\C)C(c3cccn3C)C[C@@H]3CC[C@@H](C)[C@@](O)(O3)C(=O)C(=O)N3CCCCC3C(=O)O2)CC[C@H]1O` (stereo partly drawn) [Compound 212] the same measures were 0.316 to 3.16 nM and 1000 to 10000 nM.
For the molecule `CO[C@@H]1C[C@H](C[C@@H](C)[C@@H]2CC(=O)[C@H](C)/C=C(\C)[C@@H](O)[C@@H](OC)C(=O)[C@H](C)C[C@H](C)/C=C/C=C/C=C(\C)C(OCCO)C[C@@H]3CC[C@@H](C)[C@@](O)(O3)C(=O)C(=O)N3CCCCC3C(=O)O2)CC[C@H]1OC(=O)NCCO` (stereo partly drawn) [Compound 64], the “pIC50 mTORC1” value at mTORC1 (setting [1]) is listed as “B (8.5 to 9.5 as B)”. Also, the “pIC50 mTORC2” value at mTORC2 (setting [2]) was “A (PIC50 for mTORC2 of <5 as A)”.
For `COC1C[C@@H]2CC[C@@H](C)[C@@](O)(O2)C(=O)C(=O)N2CCCCC2C(=O)O[C@H]([C@H](C)C[C@@H]2CC[C@@H](OC(=O)NCCN3CCCCC3)[C@H](OC)C2)CC(=O)[C@H](C)/C=C(\C)[C@@H](O)[C@@H](OC)C(=O)[C@H](C)C[C@H](C)/C=C/C=C/C=C/1C` (stereo partly drawn) [Compound 365], the IC50 is less than 0.316 nM on mTORC1 and less than 1000 nM at mTORC2.
For `COC1C[C@@H]2CC[C@@H](C)[C@@](O)(O2)C(=O)C(=O)N2CCCCC2C(=O)O[C@H]([C@H](C)C[C@@H]2CC[C@@H](n3ncnn3)[C@H](OC)C2)CC(=O)[C@H](C)/C=C(\C)[C@@H](O)[C@@H](OC)C(=O)[C@H](C)C[C@H](C)/C=C/C=C/C=C/1C` (stereo partly drawn) [Compound 307] the same measures were less than 0.316 nM and less than 1000 nM.
Take `CO[C@@H]1C[C@H](C[C@@H](C)[C@@H]2CC(=O)[C@H](C)/C=C(\C)[C@@H](O)[C@@H](OC)C(=O)[C@H](C)C[C@H](C)/C=C/C=C/C=C(\C)C(OCCO)C[C@@H]3CC[C@@H](C)[C@@](O)(O3)C(=O)C(=O)N3CCCC[C@H]3C(=O)O2)CC[C@H]1OCCCN1CCN(C)CC1` (mixture of isomers) [Compound 34]: the IC50 was 0.316 to 3.16 nM at mTORC1 (setting [1]) and greater than 10000 nM on mTORC2 (setting [2]).
Consider `COC1C[C@@H]2CC[C@@H](C)[C@@](O)(O2)C(=O)C(=O)N2CCCCC2C(=O)O[C@H]([C@H](C)C[C@@H]2CC[C@@H](OC(=O)NCCC3CC3)[C@H](OC)C2)CC(=O)[C@H](C)/C=C(\C)[C@@H](O)[C@@H](OC)C(=O)[C@H](C)C[C@H](C)/C=C/C=C/C=C/1C` (stereo partly drawn) [Compound 337], for which the IC50 on mTORC1 was less than 0.316 nM; at mTORC2, less than 1000 nM.
On the same counts, the results for `COC1C[C@@H]2CC[C@@H](C)[C@@](O)(O2)C(=O)C(=O)N2CCCCC2C(=O)O[C@H]([C@H](C)C[C@@H]2CC[C@@H](OC(=O)CN(C)C)[C@H](OC)C2)CC(=O)[C@H](C)/C=C(\C)[C@@H](O)[C@@H](OC)C(=O)[C@H](C)C[C@H](C)/C=C/C=C/C=C/1C` (stereo partly drawn) [Compound 343] are less than 0.316 nM and less than 1000 nM.
On the same counts, the results for `COC1CC2CCC(C)C(O)(O2)C(=O)C(=O)N2CCCCC2C(=O)OC(C(C)CC2CCC(OCCCN3CCOC(C)C3)C(OC)C2)CC(=O)C(C)C=C(C)C(O)C(OC)C(=O)C(C)CC(C)C=CC=CC=C1C` (stereo not drawn) [Compound 310] are less than 0.316 nM and less than 1000 nM.
For `COC1C[C@@H]2CC[C@@H](C)[C@@](O)(O2)C(=O)C(=O)N2CCCCC2C(=O)O[C@H]([C@H](C)C[C@@H]2CC[C@@H](OCCCN3CCC(O)CC3)[C@H](OC)C2)CC(=O)[C@H](C)/C=C(\C)[C@@H](O)[C@@H](OC)C(=O)[C@H](C)C[C@H](C)/C=C/C=C/C=C/1C` (stereo partly drawn) [Compound 368] the same measures were less than 0.316 nM and less than 1000 nM.
For `CO[C@@H]1C[C@H](C[C@@H](C)[C@@H]2CC(=O)[C@H](C)/C=C(\C)[C@@H](O)[C@@H](OC)C(=O)[C@H](C)C[C@H](C)/C=C/C=C/C=C(\C)C(OCCC3CCOCC3)C[C@@H]3CC[C@@H](C)[C@@](O)(O3)C(=O)C(=O)N3CCCCC3C(=O)O2)CC[C@H]1O` (stereo partly drawn) [Compound 213], the figures for the IC50 on mTORC1 and at mTORC2 were 0.316 to 3.16 nM and 1000 to 10000 nM, respectively.
On the same counts, the results for `COC1C[C@@H]2CC[C@@H](C)[C@@](O)(O2)C(=O)C(=O)N2CCCCC2C(=O)O[C@H]([C@H](C)C[C@@H]2CC[C@@H](OC(=O)NC3C(O)O[C@H](CO)[C@@H](O)[C@@H]3O)[C@H](OC)C2)CC(=O)[C@H](C)/C=C(\C)[C@@H](O)[C@@H](OC)C(=O)[C@H](C)C[C@H](C)/C=C/C=C/C=C/1C` (stereo partly drawn) [Compound 361] are greater than 3.16 nM and less than 1000 nM.
For `COC1C[C@@H]2CC[C@@H](C)[C@@](O)(O2)C(=O)C(=O)N2CCCCC2C(=O)O[C@H]([C@H](C)C[C@@H]2CC[C@@H](OP(C)(C)=O)[C@H](OC)C2)CC(=O)[C@H](C)/C=C(\C)[C@@H](O)[C@@H](OC)C(=O)[C@H](C)C[C@H](C)/C=C/C=C/C=C/1C` (stereo partly drawn) [Compound 342] the same measures were less than 0.316 nM and less than 1000 nM.
Turning to `COC1C[C@@H]2CC[C@@H](C)[C@@](O)(O2)C(=O)C(=O)N2CCCCC2C(=O)O[C@H]([C@H](C)C[C@@H]2CC[C@@H](OC(=O)N(C)CCN3CCCCC3)[C@H](OC)C2)CC(=O)[C@H](C)/C=C(\C)[C@@H](O)[C@@H](OC)C(=O)[C@H](C)C[C@H](C)/C=C/C=C/C=C/1C` (stereo partly drawn) [Compound 318], the IC50 on mTORC1 was less than 0.316 nM; on mTORC2 it was less than 1000 nM.
For `COC1C[C@@H]2CC[C@@H](C)[C@@](O)(O2)C(=O)C(=O)N2CCCCC2C(=O)O[C@H]([C@H](C)C[C@@H]2CC[C@@H](OCCCOCCO)[C@H](OC)C2)CC(=O)[C@H](C)/C=C(\C)[C@@H](O)[C@@H](OC)C(=O)[C@H](C)C[C@H](C)/C=C/C=C/C=C/1C` (stereo partly drawn) [Compound 319] the same measures were less than 0.316 nM and less than 1000 nM.
On the same counts, the results for `COC1C[C@@H]2CC[C@@H](C)[C@@](O)(O2)C(=O)C(=O)N2CCCCC2C(=O)O[C@H]([C@H](C)C[C@@H]2CC[C@@H](OC(=O)NCCN3CCOCC3)[C@H](OC)C2)CC(=O)[C@H](C)/C=C(\C)[C@@H](O)[C@@H](OC)C(=O)[C@H](C)C[C@H](C)/C=C/C=C/C=C/1C` (stereo partly drawn) [Compound 336] are less than 0.316 nM and less than 1000 nM.
`CO[C@@H]1C[C@H](C[C@@H](C)[C@@H]2CC(=O)[C@H](C)/C=C(\C)[C@@H](O)[C@@H](OC)C(=O)[C@H](C)C[C@H](C)/C=C/C=C/C=C(\C)C(OCCCO)C[C@@H]3CC[C@@H](C)[C@@](O)(O3)C(=O)C(=O)N3CCCCC3C(=O)O2)CC[C@H]1O` (stereo partly drawn) [Compound 210]: the IC50 on mTORC1 is 0.316 to 3.16 nM; at mTORC2, less than 1000 nM.
On the same counts, the results for `CO[C@@H]1C[C@H](C[C@@H](C)[C@@H]2CC(=O)[C@H](C)/C=C(\C)[C@@H](O)[C@@H](OC)C(=O)[C@H](C)C[C@H](C)/C=C/C=C/C=C(\C)C(SC(C)C)C[C@@H]3CC[C@@H](C)[C@@](O)(O3)C(=O)C(=O)N3CCCCC3C(=O)O2)CC[C@H]1O` (stereo partly drawn) [Compound 201] are greater than 3.16 nM and 1000 to 10000 nM.
For the molecule `COC1CC(CC(C)C2CC(=O)C(C)C=C(C)C(O)C(OC)C(=O)C(C)CC(C)C=CC=CC=C(C)C(OCCO)CC3CCC(C)C(O)(O3)C(=O)C(=O)N3CCCCC3C(=O)O2)CCC1OCCCN1CCOCC1C` (mixture of isomers) [Compound 5], the results for the IC50 at mTORC1 (setting [1]) and at mTORC2 (setting [2]) were less than 0.316 nM and greater than 10000 nM, respectively.
Take `COC1CC2CCC(C)C(O)(O2)C(=O)C(=O)N2CCCCC2C(=O)OC(C(C)CC2CCC(OCCc3ccccc3)C(OC)C2)CC(=O)C(C)C=C(C)C(O)C(OC)C(=O)C(C)CC(C)C=CC=CC=C1C` (stereo not drawn) [Compound 348]: the IC50 at mTORC1 is less than 0.316 nM; on mTORC2, less than 1000 nM.
On the same counts, the results for `CO[C@@H]1C[C@H](C[C@@H](C)[C@@H]2CC(=O)[C@H](C)/C=C(\C)[C@@H](O)[C@@H](OC)C(=O)[C@H](C)C[C@H](C)/C=C/C=C/C=C(\C)C(OC[C@@H](O)c3ccccc3)C[C@@H]3CC[C@@H](C)[C@@](O)(O3)C(=O)C(=O)N3CCCCC3C(=O)O2)CC[C@H]1O` (stereo partly drawn) [Compound 217] are less than 0.316 nM and 1000 to 10000 nM.
On to `CO[C@@H]1C[C@H](C[C@@H](C)[C@@H]2CC(=O)[C@H](C)/C=C(\C)[C@@H](O)[C@@H](OC)C(=O)[C@H](C)C[C@H](C)/C=C/C=C/C=C(\C)C(OCCc3ccccc3)C[C@@H]3CC[C@@H](C)[C@@](O)(O3)C(=O)C(=O)N3CCCCC3C(=O)O2)CC[C@H]1O` (stereo partly drawn) [Compound 211], for which the figures for the IC50 on mTORC1 and at mTORC2 were less than 0.316 nM and less than 1000 nM, respectively.
